Experimental data as given in ChEMBL document CHEMBL1201862, “PubChem BioAssay data set” (2004).
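Five concentrations, 48 hours, 96-well plates. Abbreviation: GI50, concentration required for 50% inhibition of growth.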 Calls of active or inactive are those of the source. No stated cut-off is given here; in the data, active = GI50 up to about 1.1 µM and inactive = higher.

What was measured:
Assay in all cases: NCI anticancer screen, dose series, 48 h
[1] = tested on: 786-0
[2] = tested on: A498
[3] = tested on: A549
[4] = tested on: ACHN
[5] = tested on: BT-549
[6] = tested on: CAKI-1
[7] = tested on: CCRF-CEM
[8] = tested on: COLO 205
[9] = tested on: DU-145
[10] = tested on: EKVX
[11] = tested on: HCC 2998
[12] = tested on: HCT-116
[13] = tested on: HCT-15
[14] = tested on: HL-60
[15] = tested on: HOP-62
[16] = tested on: HOP-92
[17] = tested on: HT-29
[18] = tested on: Hs-578T
[19] = tested on: IGROV-1
[20] = tested on: K562
[21] = tested on: LOX IMVI
[22] = tested on: M14
[23] = tested on: MCF7
[24] = tested on: MDA-MB-231
[25] = tested on: MDA-MB-435
[26] = tested on: MDA-N
[27] = tested on: MOLT-4
[28] = tested on: Malme-3M
[29] = tested on: NCI-H226
[30] = tested on: NCI-H23
[31] = tested on: NCI-H460
[32] = tested on: NCI-H522
[33] = tested on: NCI/ADR-RES
[34] = tested on: OVCAR-3
[35] = tested on: OVCAR-5
[36] = tested on: OVCAR-8
[37] = tested on: PC-3
[38] = tested on: RPMI-8226
[39] = tested on: RXF 393
[40] = tested on: SF-268
[41] = tested on: SF-295
[42] = tested on: SF-539
[43] = tested on: SK-MEL-28
[44] = tested on: SK-MEL-2
[45] = tested on: SK-MEL-5
[46] = tested on: SK-OV-3
[47] = tested on: SN12C
[48] = tested on: SNB-19
[49] = tested on: SR
[50] = tested on: SW-620
[51] = tested on: TK-10
[52] = tested on: U-251
[53] = tested on: UACC-257
[54] = tested on: UACC-62
[55] = tested on: UO-31
[56] = tested on: KM12
[57] = tested on: OVCAR-4
[58] = tested on: SNB-75
[59] = tested on: T47D

Measured: GI50

CC(C)(C)C1CCC2c3c([nH]c4ccccc34)C3C(=O)N(c4ccc(C(=O)O)cc4)C(=O)C3C2C1 (centres undefined)
active: [15] 0.1 µM | [27] 0.1 µM
12 µM: [13]
inactive: [1] 15.7 µM | [2] 18.2 µM | [3] 12.2 µM | [4] 11.7 µM | [5] 14.5 µM | [6] 16.7 µM | [7] 3.69 µM | [8] 19 µM | [9] 17.5 µM | [10] 22 µM | [11] 15.6 µM | [12] 14.4 µM | [14] 4.52 µM | [16] 11.2 µM | [17] 12.9 µM | [18] 17.6 µM | [19] 18.5 µM | [20] 4.43 µM | [21] 14.5 µM | [22] 16.8 µM | [23] 11 µM | [24] 15.5 µM | [25] 2.96 µM | [26] 11.9 µM | [28] 14.9 µM | [29] 20.9 µM | [30] 17.7 µM | [31] 16.3 µM | [32] 18.9 µM | [33] 16.7 µM | [34] 12.4 µM | [35] 21.9 µM | [36] 12 µM | [37] 13.4 µM | [38] 20 µM | [39] 10.9 µM | [40] 14.2 µM | [41] 10.1 µM | [42] 17.2 µM | [43] 11.3 µM | [44] 14.9 µM | [45] 13.1 µM | [46] 17.5 µM | [47] 12.8 µM | [48] 16.8 µM | [49] 25 µM | [50] 13.6 µM | [51] 17.5 µM | [52] 13.4 µM | [53] 13.9 µM | [54] 14.2 µM | [55] 16.8 µM

COc1cccc(C2SC(=N)Nc3c2c(C)nn3C(=O)c2ccccc2O)c1 (centres undefined)
active: [28] 0.581 µM | [58] 0.925 µM
inactive: [1] > 3.79 µM | [2] 7.78 µM | [3] 1.75 µM | [4] 1.77 µM | [5] > 10 µM | [6] > 10 µM | [7] > 3.21 µM | [8] > 6.4 µM | [9] > 2.44 µM | [10] > 9.14 µM | [11] > 10 µM | [12] > 2.14 µM | [15] > 7.1 µM | [16] > 2.08 µM | [17] > 6.17 µM | [19] > 2.11 µM | [56] > 2.79 µM | [21] > 4.26 µM | [22] > 5.47 µM | [23] > 3.11 µM | [24] > 4.62 µM | [25] 1.76 µM | [26] > 2.28 µM | [27] > 2.44 µM | [29] > 2.56 µM | [31] 3.22 µM | [32] > 5.41 µM | [33] > 3.78 µM | [34] > 3.65 µM | [57] > 2.88 µM | [35] > 6.73 µM | [36] > 2.76 µM | [37] > 10 µM | [38] > 10 µM | [39] 2.14 µM | [40] > 4.32 µM | [41] 3.2 µM | [43] > 10 µM | [44] > 7.23 µM | [45] > 6.53 µM | [46] > 7.5 µM | [47] > 3.35 µM | [48] > 10 µM | [49] > 3.21 µM | [50] > 7.14 µM | [59] > 7.03 µM | [51] > 2.78 µM | [52] > 2.65 µM | [53] 2.68 µM | [54] 1.76 µM | [55] > 10 µM
> 5.7 µM: [13]
